Measured values reported in patent publication US6642234B1, “Acrylonitrile compounds” (Nissan Chemical Industries, Ltd., priority 1998, dated 2003).
Each block holds one compound with its values, some of them ahead of it.

Tests used:
[1] = tested on: citrus red mite (Panonychus citri); experiment: Residual effect test for citrus red mite; assay type: in vivo; conditions: Table 4, spray solution 100 ppm, 48 hours
Procedure: Residual Effect Test for Citrus Red Mite (Panonychus citri)
A 5% emulsion (or 25% wettable powder) of a compound of the invention was diluted with water containing a spreading agent to give a solution of the compound with prescribed concentration. The solution was sprayed over each orange planted in a pot in an amount of 250 ml/pot, using a rotary sprinkler, and the pot were left in the open air. After the prescribed days, the leaves of orange plants were punched into 3.0 cm-diameter discs, using a leaf punch, and put onto moistured filter paper in a 7 cm-diameter styrol cup. Ten larvae of citrus red mite (Panonychus citri) were put to each leaf. Then, the cups were stored in a thermostatic chamber at 25° C. After 48 hours passed, the mites in each cup were observed, and mortality of the mites was determined according to the same equation as in Test Example 1. Each compound was tested in that manner for four groups of dishes.
In the test, the following Compound A described in WO97/40009 was used as a comparative compound. [drawing 35]

[2] = tested on: two-spotted spider mites (Tetranychus urticae); experiment: Acaricidal test for two-spotted spider mites; assay type: in vivo; conditions: 500 ppm solution sprayed 2 ml/cup on larvae on kidney bean leaf discs; 25° C.; after 96 hours
Procedure: [Test Example 1] Acaricidal Test For Two-spotted Spider Mites (Tetranychus urticae)
The leaves of kidney bean plants were punched into 3.0 cm-diameter discs, using a leaf punch, and put onto moistured filter paper in a 7 cm-diameter styrol cup. Ten larvae of two-spotted spider mites (Tetranychus urticae) were put to each leaf. A 5% emulsion (or 25% wettable powder) of a compound of the invention was diluted with water containing a spreading agent to give a 500 ppm solution of the compound. The solution was sprayed over each cup in an amount of 2 ml/cup, using a rotary sprinkler, and the cups were stored in a thermostatic chamber at 25° C. After 96 hours passed, the mites in each cup were observed, and mortality of the mites was determined according to the following equation. Each compound was tested in that manner for two groups of dishes.
Mortality (%)=[number of insect killed/(number of insect killed+number of living insect)]×100

Structure (SMILES): Cc1nn(-c2ccccc2)nc1/C(C#N)=C(\OC(=O)C(C)(C)C)c1c(C(F)(F)F)nn(C)c1Cl [Compound A]
- mortality at 100 ppm ([1]; 2 days left in the open air after spraying): 17.5%
- mortality at 100 ppm ([1]; 4 days left in the open air after spraying): 40%

Structure (SMILES): COc1ccccc1-n1nc(C)c(C(C#N)=C(OC(=O)C(C)(C)C)c2c(Cl)c(C)nn2C)n1 (mixture of isomers) [compound 62]
- mortality [2]: ≥ 80%

- melting point: 117 to 118 °C
Structure (SMILES): Cc1nc(C)c(C(O)=C(C#N)c2nn(-c3ccccc3)nc2C)s1 [Compound No. 20, 3-(2,4-Dimethylthiazol-5-yl)-3-hydroxy-2-(5-methyl-2-phenyl-1,2,3-triazol4-yl)acrylonitrile]
